Reference: US20230092232A1, “COMPOUNDS THAT MODULATE ANTI-TUMOR IMMUNITY AND METHODS OF DOING THE SAME” (University of Florida Research Foundation, Incorporated, priority 2020, published 2023)
“Also recorded” adds a separate entry of the source.

Assays:
HLA alleles = conditions: cited from earlier work
IMEA cells = test: In vitro killing of IMEA HCC cells, with or without BALB/c splenocytes; format: cell-based, mouse; design: IMEA cell killing: unit of the concentration uncertain; conditions: for enhanced killing of IMEA HCC: in vitro screening with T cells
Procedure: Prior to validation in human systems, a mouse system targeting hepatocellular carcinoma (HCC), the most common form of liver cancer, was used. IMEA is a murine HCC line of the H2^d haplotype, expressing the H2-D^d, H2-K^d, and H2-L^d allelic variants.
(§1) In a first set of experiments, drugs (e.g., small molecules) that bind IMEA MHC were selected from a database compiled using the in silico modeling and scoring methodology disclosed herein, and were tested for T cell stimulation and HCC killing in vitro. The crystal structure of H2-D^d was used as the basis for in silico selection of FDA-approved drugs predicted to bind the antigen binding cleft. DOCK6, a structure-based design program for early drug discovery (available for download at http://dock.compbio.ucsf.edu/) was used to screen 1,207 FDA approved small molecule drugs by parallel processing at the University of Florida High Performance Computing Center. An initial 1,207 FDA approved compounds were selected based upon their predicted ability to bind the HLA-A2 supertype, and thus their predicted efficacy across a wide swath of individuals. The top 40 scoring compounds were obtained from the National Cancer Institute Developmental Therapeutics Program.
IMEA cells were seeded in 24-well plates. At 30% confluence of IMEA cells, 0.5×10^6 of BALB/c mouse splenocytes were added to half of the wells. The compounds under evaluation were incubated with IMEA cells in concentrations […] and 1 mM, and supernatant was subsequently collected.

H2-D^d T cells = test: In vitro T cell stimulation in the mouse HCC system; format: cell-based
Procedure: as §1
IMEA cells were seeded in 24-well plates. At 30% confluence of IMEA cells, 0.5×10^6 of BALB/c mouse splenocytes were added to half of the wells. The compounds under evaluation were incubated with IMEA cells in concentrations of 10 mM and 1 mM, and supernatant was subsequently collected.

[1] = system: peripheral blood mononuclear cells from hypersensitive HLA-B*57.01+ patients; conditions: cultured with abacavir in vitro; cited from earlier work
[2] = cited from earlier work
HLA-B*57:01 = HLA-B*57:01 (Homo sapiens, UniProt P01889, D201E/D98Y/E176V/E187L/E204Q/E69M/E70A/G107R/I90N/K202T/L105A/L119I/N104I/N87E/Q89R/Q94S/R106L/R155S/R180L/R86G/S101N/S121V/S35A/S48A/T118I/V36M/Y140S/Y91M); conditions: cited from earlier work
[3] = system: PBMCs from an HLA-A2 expressing individual (UF 86); test: Ex vivo T cell stimulation assay, flow cytometry, HLA-A2 expressing PBMCs; format: cell-based, human; conditions: for autologous mixed lymphocyte reaction: HLA-A2 expressing cells, FIG. 5
Procedure: Third, top scoring compounds were tested for their ability to modulate proliferation of peripheral blood mononuclear cells (PBMCs) from healthy individuals using ex vivo T cell stimulation assays. Here, the drugs predicted to bind HLA-A2 (FIGS. 4A-4I) were tested using PBMCs from HLA-typed normal individuals. In assays, drugs were incubated with PBMCs (for up to 14 days), and functional characteristics of the responding T cell population were assayed utilizing flow cytometry (e.g., using antibodies specific for CD3 and CD8). PBMCs were stimulated with drugs at […] per ml with interleukin-2 (IL-2) supplemented on day 2. […] PBMCs from an HLA-A2 expressing individual (“UF 86” is homozygous for HLA-A*02:01) were incubated with a panel of drugs predicted to bind HLA-A2 by molecular docking. PBMCs from an individual lacking HLA-A2 (“UF 85”) served as a control for HLA allele specificity. Cells were stained with antibodies specific for CD3, CD8 (cytotoxic T lymphocyte markers), CD69, and CD107a (LAMP-1) (activation markers) to identify those drugs from the top scoring grouping that modify cytotoxic T lymphocyte activity.

## NNc1nncc2ccccc12 [Hydralazine]
HLA alleles
  HLA allele association(s) with adverse drug reaction: DR4

## Cl.Nc1ccn([C@@H]2O[C@H](CO)[C@@H](O)[C@@H]2O)c(=O)n1 [compound 63878]
IMEA cells; 1 (unit uncertain)
  IMEA cell killing: killed
IMEA cells; 10 (unit uncertain)
  IMEA cell killing: killed

## N[C@@H](Cc1ccc(N(CCCl)CCCl)cc1)C(=O)O [melphalan]
H2-D^d T cells
  stimulation of H2-D^d T cells: stimulated
IMEA cells
  enhanced killing of IMEA HCC: enhanced killing

## Nc1ncn([C@@H]2O[C@H](CO)[C@@H](O)[C@H]2O)c(=O)n1 [compound 102816]
IMEA cells; 10 (unit uncertain)
  IMEA cell killing: killed

## NC(=O)c1ncn([C@@H]2O[C@H](CO)[C@@H](O)[C@H]2O)n1 [compound 163039]
IMEA cells; 10 (unit uncertain)
  IMEA cell killing: killed

## NC(=O)c1ncn([C@@H]2O[C@H](CO)[C@@H](O)[C@H]2O)n1 [ribavirin]
H2-D^d T cells
  stimulation of H2-D^d T cells: stimulated
IMEA cells
  enhanced killing of IMEA HCC: enhanced killing

## CN1CCN(C2=Nc3cc(Cl)ccc3Nc3ccccc32)CC1 [Clozapine]
HLA alleles
  HLA allele association(s) with adverse drug reaction: B38, DR4, DR2

## Nc1nc(NC2CC2)c2ncn([C@H]3C=C[C@@H](CO)C3)c2n1 [Abacavir]
[1]
  immune response of PBMCs (interferon-γ, tumor necrosis factor-α, other inflammatory cytokines): detectable immune response
[2]; HLA-B*57:01 patient
  risk of a hypersensitivity reaction: ~50%
[2]; no genetic prescreening, HLA-B*57:01+ and HLA-B*57:01- individuals
  overall incidence rate of hypersensitivity: ~6%
HLA-B*57:01; by binding HLA-B*57:01
  CD8+ T cell activity: enhances
HLA-B*57:01; drug naïve individuals that carry the HLA-B*57:01 allele
  polyclonal T cell responses: stimulates

## CC(=O)Oc1ccccc1C(=O)O [Aspirin]
HLA alleles
  HLA allele association(s) with adverse drug reaction: DPB1*03:01; also recorded: DRB1*13:02-DQB1*06:09

## Asparaginase
HLA alleles
  HLA allele association(s) with adverse drug reaction: DRB1*07:01

## O=C(O)CNC(=O)C(Cl)Cl [drug 3]
[3]
  autologous mixed lymphocyte reaction: inhibit

## Nc1ncn([C@@H]2O[C@H](CO)[C@@H](O)[C@H]2O)c(=O)n1 [vidaza]
H2-D^d T cells
  stimulation of H2-D^d T cells: stimulated
IMEA cells
  enhanced killing of IMEA HCC: enhanced killing

## N[C@@H](Cc1ccc(N(CCCl)CCCl)cc1)C(=O)O [compound 241286]
IMEA cells; 10 (unit uncertain)
  IMEA cell killing: killed

## CC1(C)S[C@@H]2[C@H](NC(=O)[C@H](N)c3ccccc3)C(=O)N2[C@H]1C(=O)O [Aminopenicillins]
HLA alleles
  HLA allele association(s) with adverse drug reaction: A2, DRw52

## O=CC(Br)=C(Br)C(=O)O [drug 11, 2,3-dibromo-4-oxobut-2-enoic acid]
[3]; day 4, FIG. 5
  number of activated CD8+ cells: enhances

## Cc1cc(NS(=O)(=O)c2ccc(N)cc2)no1 [Sulfamethoxazole]
HLA alleles
  HLA allele association(s) with adverse drug reaction: A30; B13; Cw6

## CC(C)(S)[C@@H](N)C(=O)O [d-penicillamine]
HLA alleles
  HLA allele association(s) with adverse drug reaction: B8, DR3, DR1

## O=C(O)c1ccc(I)cc1O [drug 10]
[3]
  autologous mixed lymphocyte reaction: inhibit

## CCOC(=O)CN[C@@H](C(=O)N1CC[C@H]1C(=O)NCc1ccc(/C(N)=N\O)cc1)C1CCCCC1 [Ximelagatran]
HLA alleles
  HLA allele association(s) with adverse drug reaction: DRB1*07, DQA1*02; also recorded: DQB1*07:01
